From patent US20190047983A1, “MODIFIED PROCESS FOR THE PREPARATION OF CERITINIB AND AMORPHOUS FORM OF CERITINIB” (NATCO PHARMA LIMITED, priority 2016, published 2019)

Assay: Stability of the amorphous form, confirmed by PXRD, DSC and TGA
Assay type: physicochemical
Conditions: solid amorphous form
From the text: According to the present invention, the obtained amorphous form of Ceritinib is stable up to 180 days. The stability of the amorphous form is confirmed by PXRD, DSC and TGA.
FIG. 2: Powder X-ray diffractogram of an amorphous form of ceritinib of 180 days

With `Cc1cc(Nc2ncc(Cl)c(Nc3ccccc3S(=O)(=O)C(C)C)n2)c(OC(C)C)cc1C1CCNCC1` [amorphous form of Ceritinib] the “stability towards polymorphic conversion” value was “stable towards polymorphic conversion” and the “stability of the amorphous form (time for which it is stable)” value (confirmed by PXRD, DSC and TGA, storage conditions not given) was “up to 180 days”.
